Source: the METLIN SMRT retention time set (Domingo-Almenara et al. 2019)

Experiment: gradient 5% acetonitrile 3 min, to 50% in 2 min, to 85% in 15 min, held 3 min, 100 µL/min
Details: column: Zorbax Extend-C18 2.1 x 50 mm; eluents: water / acetonitrile, 0.1% formic acid
Method in brief: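 Over 3 months, pure standards in mixtures of ~100 molecules were run by HPLC coupled to a quadrupole time-of-flight mass spectrometer in positive and negative ionization mode. The column was a Zorbax Extend-C18 (2.1 × 50 mm, 1.8 μm) at 100 μL/min, eluted with water and acetonitrile each holding 0.1% formic acid, with 40 μL dead and 900 μL dwell volumes. Retention time was determined from adduct peaks chosen by software and checked manually.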

Row | SMILES | RP-LC retention time [s]
1 | Cc1ccc2[nH]cc(CCN3CC(C(=O)Nc4ccc5c(c4)OCO5)CC3=O)c2c1 (stereo not given) | 783
2 | CC(C)c1nc2c(c(=O)n1CC(=O)Nc1ccccc1)CCN(Cc1ccccc1)C2 | 674
3 | Cc1nc(C)c(C(=O)Nc2nc(-c3ccccc3)c(C)s2)s1 | 930
4 | O=C(CN1c2ccc(F)cc2-c2ccccc2S1(=O)=O)NCCCN1CCOCC1 | 625
5 | O=C(NCc1cccc(Cl)c1)C1=C2CCCN2c2ccc(F)cc2S1(=O)=O | 933
6 | Cc1cc(-c2nnc(-c3ccccc3)o2)c(C)n1CC(=O)Nc1cccc(F)c1 | 938
7 | Cc1nc2cc(C(=O)N3CCOCC3)ccc2n(C)c1=O | 596
8 | Cc1cc(C(=O)Nc2nnc(-c3ccn(C(C)C)n3)o2)no1 | 620
9 | CCCC(=O)Nc1ccc2nc(N3CCN(c4cccc(C)c4C)CC3)cc(C(=O)O)c2c1 | 732
10 | Cc1ccc(-c2nc(C)cc(OCC(=O)NCc3ccc4c(c3)OCO4)n2)cc1 | 919
11 | Cc1ccc(N2C(=O)C3N=NN(Cc4nc(-c5ccc6c(c5)OCO6)no4)C3C2=O)cc1Cl (stereo not given) | 1010
12 | COc1cc(C(=O)N2CCC3(CC2)NC(=O)c2ccccc2N3C)cc(OC)c1OC | 669
13 | Cc1nnc2ccc(C(=O)NC(C)C)cn12 | 590
14 | CCCNc1nc(-c2cccc(Br)c2)cs1 | 1030
15 | O=C(NCc1ccco1)C1CCN(c2ncccc2-c2nc(-c3ccccc3)no2)CC1 | 964
16 | CCn1ncc2ccc(C(=O)NC)cc21 | 608
17 | O=C(Cn1cccc1-c1nnc(-c2ccccc2)o1)N1CCN(Cc2ccc3c(c2)OCO3)CC1 | 709
18 | CCn1cc(C2=CCN(S(=O)(=O)c3cccc(Cl)c3)CC2)c2cccnc21 | 1070
19 | COC(=O)CC(NC(=O)N1CCCn2nc(-c3ccncc3)cc2C1)c1ccccc1 (stereo not given) | 608
20 | Cc1cc(NC(=O)Nc2ccc3nnc(C4CCC4)n3c2)ccc1Br | 903

Row | SMILES | RP-LC retention time [s]
21 | CCN(CC)C(=O)c1ccc2c(c1)nnn2CCNC(=O)Nc1cc(F)ccc1F | 714
22 | COCCn1nnnc1C1CC2(CCOCC2)C(=O)N1CCc1ccc(OC)c(OC)c1 (stereo not given) | 685
23 | COc1ccc(-c2nnc(-c3ccccc3)o2)cc1S(N)(=O)=O | 716
24 | CCN(CC)S(=O)(=O)c1c(C)[nH]c(=O)[nH]c1=O | 578
25 | CCOc1ccc(NC(=O)c2oc3ccc(Cl)cc3c2C)c2cccnc12 | 789
26 | O=C1CCc2cc(NC(=O)c3cccnc3)ccc2N1 | 579
27 | CCN1c2cc(Cl)ccc2C(=O)NC12CCN(C(=O)Nc1ccc(OC)cc1)CC2 | 895
28 | COc1ccc(/C=C/c2ccccc2F)cc1 | 1170
29 | O=C(NC1CCCN(c2cc(-c3ccncc3)[nH]n2)C1)c1cccc(F)c1 (stereo not given) | 593
30 | Cc1ccc(C)c(NC(=O)N2C[C@H](c3nc(-c4cccnc4)no3)[C@@H](C)C2)c1 | 794
31 | CCN(CC)C(=O)CC(c1cc(OC)c(OC)c(OC)c1)N1Cc2ccccc2C1=O (stereo not given) | 769
32 | CCc1ccc(CNC(=O)C2CC(=O)N(c3ccc4oc(C)nc4c3)C2)cc1 (stereo not given) | 671
33 | CSc1ccc(CNC(=O)C2CCN(Cc3cn(C)c4ccc(Cl)cc34)CC2)cc1 | 766
34 | CC1(C)CC(=O)c2cn(-c3ccc(Cl)cc3)c(=O)c(C(=O)N3CCN(c4ccccn4)CC3)c2C1 | 650
35 | O=C1c2ccccc2C(=O)C1c1ccccn1 | 749
36 | Cc1ccc(NC(=O)Cn2cnc3c(-c4ccccc4)csc3c2=O)c(Cl)c1 | 965
37 | COc1ccc(OC)c(S(=O)(=O)N2CCCC(C)(C(=O)NCc3ccccc3)C2)c1 (stereo not given) | 903
38 | O=S(=O)(c1cccs1)N1CCc2nc(-c3ccccc3)ncc2C1 | 992
39 | CC(CCc1ccccc1)NC(=O)CN1CCCN(Cc2cccc(Cl)c2)S1(=O)=O (stereo not given) | 1120
40 | Cc1cc(C)c(C)c(S(=O)(=O)NCC(=O)NCC2CCCO2)c1C (stereo not given) | 724

Row | SMILES | RP-LC retention time [s]
41 | CCOC(=O)c1c(C)[nH]c(C(=O)N2CCC(C(C)C(=O)NCc3ccc(OC(C)C)cc3)CC2)c1C (stereo not given) | 892
42 | Cn1nc2n(c1=O)CCN(C(=O)c1ccn[nH]1)CC2 | 552
43 | Cc1cc(N2CCN(c3ccccn3)CC2)n2nc(C(F)(F)F)c(-c3ccc(F)cc3)c2n1 | 870
44 | COc1ccc(-c2nc3nc(C)cc(C)n3c2Nc2ccc(Cl)cc2)cc1 | 730
45 | COc1ccc(-c2cn3c(CC(=O)Nc4ccc(C(F)(F)F)cc4)csc3n2)cc1OC | 846
46 | Cc1nnc(-c2sccc2C)o1 | 742
47 | O=C(c1cc2ccccc2o1)N1CCC(CNS(=O)(=O)Cc2ccccc2Cl)CC1 | 880
48 | O=C(CCC(=O)N1CCCC1c1nc2ccccc2s1)N1CCc2ccccc21 (stereo not given) | 876
49 | COc1ccccc1NC(=O)N1CCC2(C1)C(=O)N(C)c1ccccc12 (stereo not given) | 818
50 | CCOc1ccc2ncc(S(=O)(=O)c3ccc(Cl)cc3)c(N3CCN(CC)CC3)c2c1 | 685
51 | COc1cccc(N2CCN(c3ccnc(SCC(=O)Nc4cccc(Cl)c4)n3)CC2)c1 | 827
52 | Cc1ccc(C)c(NC(=O)NC2CCN(c3ccccc3)C2=O)c1 (stereo not given) | 823
53 | CCn1c(C(=O)NCc2ccc(F)cc2)cc2sccc21 | 1010
54 | Cc1ccc(NC(=O)Cn2cccc2-c2nnc(C3CCC3)o2)cc1 | 926
55 | CC(C)c1nnc2n1CCN(C(=O)COc1ccc(Cl)cc1)C2 | 692
56 | Cc1cc(S(=O)(=O)N2[C@H]3CC[C@@H]2c2cnc(-c4ccccc4)nc2C3)ccc1F | 1090
57 | CCCN1C(=O)c2n[nH]c(-c3ccco3)c2C1c1ccc(O)c(OC)c1 (stereo not given) | 699
58 | COc1ccc(NC(=O)N2CCCC(C)(C(=O)NCc3ccccc3)C2)cc1 (stereo not given) | 828

Continued, values first:

Row | RP-LC retention time [s] | SMILES
59 | 595 | CCCCC(=O)Nc1cnc(N2CCNCC2)c(C(=O)N2CCCC2)c1
60 | 591 | CC(C)CCNC(=O)C1CCCN(C(=O)c2cc(-c3ccncc3)n[nH]2)C1 (stereo not given)
61 | 780 | CC(C)c1noc(COC2CCCN(C(=O)NCc3ccccc3)C2)n1 (stereo not given)
62 | 936 | CCc1noc(C2(NC(=O)c3ccccc3Cl)CCCCC2)n1
63 | 872 | CCC1CN(C(=O)N2CCC(C(=O)NCc3ccco3)CC2)c2cc(C)ccc2O1 (stereo not given)
64 | 667 | O=C(NCC1CCN(C(=O)c2ccccc2F)CC1)c1ccccn1
65 | 778 | COc1cccc(CNC(=O)Cn2c(=O)c3c(C(=O)N4CCCCC4)cc(C)nc3n(C)c2=O)c1
66 | 554 | O=C(NCC1CCN(Cc2ccsc2)CC1)Nc1ccc2c(c1)OCO2
67 | 1160 | O=C(NC1CCCCC1)c1csc(N2CCN(c3ccccc3)CC2)n1
68 | 686 | COCCOC1CCC12CCN(C(=O)c1ocnc1C)CC2 (stereo not given)
69 | 806 | Cc1cc2c(cc1S(=O)(=O)N1CCCC1C(=O)N(C)C1CCCCC1)OC(C)C(=O)N2 (stereo not given)
70 | 621 | Cc1ccc(C(=O)N2C[C@@H](F)C[C@H]2C(=O)N2CCOCC2)cc1
71 | 585 | CN(C)[C@@H]1CN(C(=O)C2CCCCC2)CC[C@@H]1CO
72 | 711 | CC1CCCC(NC(=O)Cn2cnc3c(nc4n3CCCCC4)c2=O)C1C (stereo not given)
73 | 661 | Cc1nnc(NC(=O)C2CCN(C(=O)c3cccc(F)c3)CC2)s1
74 | 575 | COCCOC1CCC12CCN(C(=O)c1cnc[nH]1)CC2 (stereo not given)

Row | RP-LC retention time [s] | SMILES
75 | 894 | Cc1cccc(C(=O)N2CCc3ccc(CNC(=O)NCC4CCCO4)cc32)c1 (stereo not given)
76 | 1140 | Cc1nc(-c2cc(S(=O)(=O)N3CCCCC3)c(C)n2C)sc1C
77 | 609 | CN1CC(c2nc(C3CC3)no2)C2(CCN(C(=O)c3ccc4c(c3)OCO4)CC2)C1 (stereo not given)
78 | 896 | Cc1[nH]c(-c2ccccc2)cc1C(=O)N1CCCCCC1
79 | 693 | COc1cc(NC(=O)N2CCc3c(c(C(=O)N4CCCC4)nn3C)C2)cc(OC)c1
80 | 694 | O=C(CN1C(=O)COc2ccc(C(=O)N3CCCC3)cc21)Nc1ccccc1F
81 | 774 | CCOC(=O)c1c(S(=O)(=O)N2CCC(C(=O)NCc3cccs3)CC2)c(C)n(C)c1C
82 | 581 | CCC(C)NC(=O)N1CCN(Cc2nc3cc(C(=O)N4CCCC4)ccc3n2C)CC1 (stereo not given)
83 | 624 | Cc1cccnc1NC(=O)C1CCCN(c2ccc3cc(S(=O)(=O)N4CCCC4)ccc3n2)C1 (stereo not given)
84 | 799 | CCc1nn2c(S(=O)(=O)NC3CCCC3)c(C)nc2s1
85 | 879 | CC(=O)N1c2ccc(S(=O)(=O)N3CCCCC3)cc2CC1C(=O)NCc1ccc(N(C)C)cc1 (stereo not given)
86 | 679 | Cc1ccc(NC(=O)C2CCCN(c3cn[nH]c(=O)c3)C2)cc1 (stereo not given)
87 | 824 | CC(C)c1c(C2CCN(C(=O)c3cc4ccccc4[nH]3)CC2)noc1N
88 | 671 | Nc1cc(C2CCN(C(=O)NCc3ccc(F)cc3)CC2)no1
89 | 1340 | Cc1sc2ncnc(N3CCCC(C)C3)c2c1C(=O)Nc1ccc(C(F)(F)F)cc1 (stereo not given)
90 | 902 | Cc1ccc(S(=O)(=O)N2CCC(C(=O)NC(C)C(=O)N3CCCc4ccccc43)CC2)cc1 (stereo not given)
